Results as given in US11208421B2, “2-carboxypenam compound or salt thereof, pharmaceutical composition containing novel 2-carboxypenam compound or salt thereof, and applications thereof” (priority 2017, dated 2021).
Converted amounts (≈) assume the structure as drawn.

Assays:
Type in all cases: cell-based
[1] = system: Pseudomonas aeruginosa IMP-1-producing strain S-2838; assay: Antibacterial activity evaluation test (MIC), broth microdilution, IMP-1-producing strain S-2838; settings: for MIC: Pseudomonas aeruginosa, read-out: MIC Pseudomonas aeruginosa strain S-2838; for MIC Pseudomonas aeruginosa strain S-2838: IMP-1-producing strain, cation-adjusted Mueller Hinton medium, 35° C., 16 to 20 hours
Description: (§1) The minimum inhibitory concentration (MIC) was measured according to the Clinical and Laboratory Standards Institute (CLSI) standard method by using the following broth microdilution method.
(§2) As bacteria, a Pseudomonas aeruginosa strain ATCC 27853, a Pseudomonas aeruginosa AmpC derepression mutant strain S-3028, and a Pseudomonas aeruginosa IMP-1-producing strain S-2838 were used.
(§3) The Pseudomonas aeruginosa AmpC-derepression mutant strain S-3028 or the Pseudomonas aeruginosa IMP-1-producing strain S-2838 was cultured on a Mueller Hinton agar medium overnight, thereby preparing test bacterial cells. The obtained test bacterial cells were scraped off, suspended to yield 0.5 McFarland equivalence, and diluted 10-fold to obtain an inoculum. A cation-adjusted Mueller Hinton medium containing a test compound was inoculated with 0.0005 mL of the inoculum, and the cells were cultured at 35° C. for 16 to 20 hours. The minimum drug concentration at which the growth of bacteria was not visually observed was defined as MIC.

[2] = system: Pseudomonas aeruginosa strain ATCC 27853; assay: Antibacterial activity evaluation test (MIC), broth microdilution, strain ATCC 27853; settings: for MIC: Pseudomonas aeruginosa, ATCC27853, read-out: MIC Pseudomonas aeruginosa strain ATCC 27853; for MIC Pseudomonas aeruginosa strain ATCC 27853: cation-adjusted Mueller-Hinton medium supplemented with 20 M of apotransferrin, 35° C., 16 to 20 hours
Description: as §1, §2, §3
The MIC of the Pseudomonas aeruginosa ATCC strain 27853 was measured in the same manner as described above by using a cation-adjusted Mueller-Hinton medium supplemented with […] of apotransferrin as a final concentration.

[3] = system: Pseudomonas aeruginosa AmpC derepression mutant strain S-3028; assay: Antibacterial activity evaluation test (MIC), broth microdilution, AmpC derepression mutant strain S-3028; settings: for MIC: Pseudomonas aeruginosa, read-out: MIC Pseudomonas aeruginosa strain S-3028; for MIC Pseudomonas aeruginosa strain S-3028: AmpC derepression mutant, cation-adjusted Mueller Hinton medium, 35° C., 16 to 20 hours
Description: as §1, §2, §3

Q: Which MIC [1] does the source give for `CO[C@@H](CNC(=O)C(=O)c1ccc(O)c(O)c1Cl)CS[C@]1(C(=O)O)CN2C(=O)[C@@H](NC(=O)/C(=N\OC(C)(C)C(=O)O)c3csc(N)n3)C2S1` (stereo partly drawn) [Example 6, (3R,5R,6R)-6-((Z)-2-(2-aminothiazol-4-yl)-2-(((2-carboxypropane-2-yl)oxy)imino)acetamide)-3-(((S)-3-(2-(2-chloro-3,4-dihydroxyphenyl)-2-oxoacetamide)-2-methoxypropyl)thio)-7-oxo-4-thia-1-azabicyclo[3.2.0]heptane-3-carboxylic acid] here?
A: 2 µg/mL (≈ 2.63 µM)

Q: And the MIC [2]?
A: 0.25 µg/mL (≈ 0.328 µM)

Q: And the MIC [3]?
A: 4 µg/mL (≈ 5.25 µM)

Q: What does the source list for `COC[C@H](CS[C@]1(C(=O)O)CN2C(=O)[C@@H](NC(=O)/C(=N\OC(C)(C)C(=O)O)c3csc(N)n3)C2S1)NC(=O)c1ccc(O)c(O)c1Cl` (stereo partly drawn) [Example 19, (3R,5R,6R)-6-((Z)-2-(2-aminothiazol-4-yl)-2-(((2-carboxypropan-2-yl)oxy)imino)acetamide)-3-(((R)-2-(2-chloro-3,4-dihydroxybenzamide)-3-methoxypropyl)thio)-7-oxo-4-thia-1-azabicyclo[3.2.0]heptane-3-carboxylic acid]?
A: MIC [1]: 1 µg/mL (≈ 1.36 µM); MIC [2]: 0.125 µg/mL (≈ 0.17 µM); MIC [3]: 1 µg/mL (≈ 1.36 µM)

Q: How did the MIC [1] turn out when `CN(CCS[C@]1(C(=O)O)CN2C(=O)[C@@H](NC(=O)/C(=N\OC(C)(C)C(=O)O)c3csc(N)n3)[C@H]2S1)C(=O)c1ccc(O)c(O)c1Cl` [Example 25, (3R,5R,6R)-6-((Z)-2-(2-aminothiazol-4-yl)-2-(((2-carboxypropan-2-yl)oxy)imino)acetamide)-3-((2-(2-chloro-3,4-dihydroxy-N-methylbenzamide)ethyl)thio)-7-oxo-4-thia-1-azabicyclo[3.2.0]heptane-3-carboxylic acid] was run?
A: 1 µg/mL (≈ 1.42 µM)

Q: What about the MIC [2] of the same molecule?
A: 1 µg/mL (≈ 1.42 µM)

Q: And the MIC [3]?
A: 2 µg/mL (≈ 2.84 µM)

Q: What does the source list for `CC(C)(O/N=C(\C(=O)N[C@@H]1C(=O)N2C[C@](SC[C@@H]3COCCN3C(=O)c3ccc(O)c(O)c3Cl)(C(=O)O)S[C@H]12)c1csc(N)n1)C(=O)O` [Example 27, (3R,5R,6R)-6-((Z)-2-(2-aminothiazol-4-yl)-2-(((2-carboxypropan-2-yl)oxy)imino)acetamide)-3-((((S)-4-(2-chloro-3,4-dihydroxybenzoyl)morpholin-3-yl)methyl)thio)-7-oxo-4-thia-1-azabicyclo[3.2.0]heptane-3-carboxylic acid]?
A: MIC Pseudomonas aeruginosa strain S-2838 [1]: 0.5 µg/mL (≈ 0.671 µM); MIC Pseudomonas aeruginosa strain ATCC 27853 [2]: 1 µg/mL (≈ 1.34 µM); MIC Pseudomonas aeruginosa strain S-3028 [3]: 0.5 µg/mL (≈ 0.671 µM)

Q: What does the source list for `CC(C)(O/N=C(\C(=O)N[C@@H]1C(=O)N2C[C@](SCCNC(=O)C(=O)c3ccc(O)c(O)c3)(C(=O)O)S[C@H]12)c1csc(N)n1)C(=O)O` [Example 7, (3R,5R,6R)-6-((Z)-2-(2-aminothiazol-4-yl)-2-(((2-carboxypropane-2-yl)oxy)imino)acetamide)-3-((2-(2-(3,4-dihydroxyphenyl)-2-oxoacetamide)ethyl)thio)-7-oxo-4-thia-1-azabicyclo[3.2.0]heptane-3-carboxylic acid]?
A: MIC Pseudomonas aeruginosa strain S-2838 [1]: 4 µg/mL (≈ 5.86 µM); MIC Pseudomonas aeruginosa strain ATCC 27853 [2]: 0.125 µg/mL (≈ 0.183 µM); MIC Pseudomonas aeruginosa strain S-3028 [3]: 16 µg/mL (≈ 23.4 µM)

Q: Which results are given for `CC(C)(O/N=C(\C(=O)N[C@@H]1C(=O)N2C[C@](SCCNC(=O)C(=O)c3cc(O)c(O)cc3Cl)(C(=O)O)S[C@H]12)c1csc(N)n1)C(=O)O` [Example 23, (3R,5R,6R)-6-((Z)-2-(2-aminothiazol-4-yl)-2-(((2-carboxypropan-2-yl)oxy)imino)acetamide)-3-((2-(2-(2-chloro-4,5-dihydroxyphenyl)-2-oxoacetamide)ethyl)thio)-7-oxo-4-thia-1-azabicyclo[3.2.0]heptane-3-carboxylic acid]?
A: MIC Pseudomonas aeruginosa strain S-2838 [1]: 4 µg/mL (≈ 5.58 µM); MIC Pseudomonas aeruginosa strain ATCC 27853 [2]: 1 µg/mL (≈ 1.39 µM); MIC Pseudomonas aeruginosa strain S-3028 [3]: 2 µg/mL (≈ 2.79 µM)

Q: `CC(C)(O/N=C(\C(=O)N[C@@H]1C(=O)N2C[C@](SCCNC(=O)/C(=N\NC(N)=O)c3ccc(O)c(O)c3)(C(=O)O)S[C@H]12)c1csc(N)n1)C(=O)O` [Example 14, (3R,5R,6R)-6-((Z)-2-(2-aminothiazol-4-yl)-2-(((2-carboxypropane-2-yl)oxy)imino)acetamide)-3-((2-(2-(2-carbamoylhydrazono)-2-(3,4-dihydroxyphenyl)acetamide)ethyl)thio)-7-oxo-4-thia-1-azabicyclo[3.2.0]heptane-3-carboxylic acid] was tested. Which MIC [1] did it give?
A: 1 µg/mL (≈ 1.35 µM)

Q: What about the MIC [2] of the same molecule?
A: 0.25 µg/mL (≈ 0.338 µM)

Q: And the MIC [3]?
A: 32 µg/mL (≈ 43.3 µM)

Q: Which results are given for `CC(C)(O/N=C(\C(=O)N[C@@H]1C(=O)N2C[C@](SCCNC(=O)/C(=N\N)c3ccc(O)c(O)c3Cl)(C(=O)O)S[C@H]12)c1csc(N)n1)C(=O)O` [Example 26, (3R,5R,6R)-6-((Z)-2-(2-aminothiazol-4-yl)-2-(((2-carboxypropan-2-yl)oxy)imino)acetamide)-3-((2-((Z)-2-(2-chloro-3,4-dihydroxyphenyl)-2-hydrazinylideneacetamide)ethyl)thio)-7-oxo-4-thia-1-azabicyclo[3.2.0]heptane-3-carboxylic acid]?
A: MIC Pseudomonas aeruginosa strain S-2838 [1]: 1 µg/mL (≈ 1.37 µM); MIC Pseudomonas aeruginosa strain ATCC 27853 [2]: 0.5 µg/mL (≈ 0.684 µM); MIC Pseudomonas aeruginosa strain S-3028 [3]: 8 µg/mL (≈ 10.9 µM)

Q: What does the source list for `CC(C)(O/N=C(\C(=O)N[C@@H]1C(=O)N2C[C@](SCCNC(=O)/C(=N/NC(N)=O)c3ccc(O)c(O)c3Cl)(C(=O)O)S[C@H]12)c1csc(N)n1)C(=O)O` [Example 13, (3R,5R,6R)-6-((Z)-2-(2-aminothiazole-4-yl)-2-(((2-carboxypropan-2-yl)oxy)imino)acetamide)-3-((2-((E)-2-(2-carbamoylhydrazono)-2-(2-chloro-3,4-dihydroxyphenyl)acetamide)ethyl)thio)-7-oxo-4-thia-1-azabicyclo[3.2.0]heptane-3-carboxylic acid]?
A: MIC [1]: 8 µg/mL (≈ 10.3 µM); MIC [2]: ≤ 0.0625 µg/mL; MIC [3]: 16 µg/mL (≈ 20.7 µM)

Q: For `CN/N=C(\C(=O)NCCS[C@]1(C(=O)O)CN2C(=O)[C@@H](NC(=O)/C(=N\OC(C)(C)C(=O)O)c3csc(N)n3)[C@H]2S1)c1ccc(O)c(O)c1Cl` [Example 8, (3R,5R,6R)-6-((Z)-2-(2-aminothiazol-4-yl)-2-(((2-carboxypropan-2-yl)oxy)imino)acetamide)-3-((2-((Z)-2-(2-chloro-3,4-dihydroxyphenyl)-2-(2-methylhydrazono)acetamide)ethyl)thio)-7-oxo-4-thia-1-azabicyclo[3.2.0]heptane-3-carboxylic acid], which MIC [1] is on record?
A: 0.25 µg/mL (≈ 0.335 µM)

Q: What about the MIC [2] of the same molecule?
A: ≤ 0.0625 µg/mL

Q: And the MIC [3]?
A: 2 µg/mL (≈ 2.68 µM)

Q: With `CC(C)(O/N=C(\C(=O)N[C@@H]1C(=O)N2C[C@](SCCNC(=O)C(=O)c3ccc(O)c(O)c3Cl)(C(=O)O)S[C@H]12)c1csc(N)n1)C(=O)O` [Example 1, (3R,5R,6R)-6-((Z)-2-(2-aminothiazol-4-yl)-2-(((2-carboxypropan-2-yl)oxy)imino)acetamide)-3-((2-(2-(2-chloro-3,4-dihydroxyphenyl)-2-oxoacetamide)ethyl)thio)-7-oxo-4-thia-1-azabicyclo[3.2.0]heptane-3-carboxylic acid] as the molecule, how does the “MIC Pseudomonas aeruginosa strain S-2838” value [1] read?
A: 2 µg/mL (≈ 2.79 µM)

Q: And the “MIC Pseudomonas aeruginosa strain ATCC 27853” value [2]?
A: 0.125 µg/mL (≈ 0.174 µM)

Q: And the “MIC Pseudomonas aeruginosa strain S-3028” value [3]?
A: 128 µg/mL (≈ 178 µM)

Q: For `CC(C)(O/N=C(\C(=O)N[C@@H]1C(=O)N2C[C@](SC3CN(C(=O)C(=NNC(N)=O)c4ccc(O)c(O)c4Cl)C3)(C(=O)O)S[C@H]12)c1csc(N)n1)C(=O)O` [Example 11, (3R,5R,6R)-6-((Z)-2-(2-aminothiazol-4-yl)-2-(((2-carboxypropan-2-yl)oxy)imino)acetamide)-3-((1-((Z)-2-(2-carbamoylhydrazono)-2-(2-chloro-3,4-dihydroxyphenyl)acetyl)azetidin-3-yl)thio)-7-oxo-4-thia-1-azabicyclo[3.2.0]heptane-3-carboxylic acid], which MIC [1] is on record?
A: 2 µg/mL (≈ 2.54 µM)

Q: And the MIC [2]?
A: ≤ 0.0625 µg/mL

Q: And the MIC [3]?
A: 1 µg/mL (≈ 1.27 µM)

Q: `CC(C)(O/N=C(\C(=O)N[C@@H]1C(=O)N2C[C@](SC3CN(C(=O)C(=O)c4ccc(O)c(O)c4Cl)C3)(C(=O)O)S[C@H]12)c1csc(N)n1)C(=O)O` [Example 2, (3R,5R,6R)-6-((Z)-2-(2-aminothiazol-4-yl)-2-(((2-carboxypropan-2-yl)oxy)imino)acetamide)-3-((1-(2-(2-chloro-3,4-dihydroxyphenyl)-2-oxoacetyl)azetidin-3-yl)thio)-7-oxo-4-thia-1-azabicyclo[3.2.0]heptane-3-carboxylic acid] was tested. Which “MIC Pseudomonas aeruginosa strain S-2838” value [1] did it give?
A: 16 µg/mL (≈ 21.9 µM)

Q: And the “MIC Pseudomonas aeruginosa strain ATCC 27853” value [2]?
A: ≤0.0625 µg/mL

Q: What about the “MIC Pseudomonas aeruginosa strain S-3028” value [3] of the same molecule?
A: 4 µg/mL (≈ 5.49 µM)
